In this test the target is canine TRPM8 (Canis lupus familiaris, UniProt Q1A7N1). The test can be described thus: In Vitro Canine TRPM8 Functional Assay (Ca2+ fluorescence, icilin activation). The test is classed as cell-based. The conditions noted are these: for IC50: read-out: IC50; for inhibition at 0.2 µM: read-out: % Inh @ 0.2; for inhibition at 0.5 µM: read-out: % Inh @ 0.5. A digest of the protocol: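 Readout is the intracellular Ca2+ fluorescence change, measured by FLIPR or FDSS, in HEK293 cells stably expressing canine TRPM8. Potency (EC50 or IC50) is fitted from eight concentrations averaged over quadruplicate wells.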

Setting [1] is: HEK293 cells stably expressing canine TRPM8, icilin activation, eight-point dose-response.
Where [2] appears, read: compound at 0.2 μM, canine TRPM8, icilin activation.
Setting [3] is: compound at 0.5 μM, canine TRPM8, icilin activation.
Setting [4] is: 0.2 μM compound, HEK293 cells stably expressing canine TRPM8, icilin activation.
[5] abbreviates: HEK293 cells stably expressing canine TRPM8, icilin activation, average of two or more determinations.

Like-named read-outs stand apart in the source and are kept apart here.

For orientation: IC50 means the concentration needed to halve the response being measured.

Chain of canine TRPM8 (Q1A7N1 1-1104): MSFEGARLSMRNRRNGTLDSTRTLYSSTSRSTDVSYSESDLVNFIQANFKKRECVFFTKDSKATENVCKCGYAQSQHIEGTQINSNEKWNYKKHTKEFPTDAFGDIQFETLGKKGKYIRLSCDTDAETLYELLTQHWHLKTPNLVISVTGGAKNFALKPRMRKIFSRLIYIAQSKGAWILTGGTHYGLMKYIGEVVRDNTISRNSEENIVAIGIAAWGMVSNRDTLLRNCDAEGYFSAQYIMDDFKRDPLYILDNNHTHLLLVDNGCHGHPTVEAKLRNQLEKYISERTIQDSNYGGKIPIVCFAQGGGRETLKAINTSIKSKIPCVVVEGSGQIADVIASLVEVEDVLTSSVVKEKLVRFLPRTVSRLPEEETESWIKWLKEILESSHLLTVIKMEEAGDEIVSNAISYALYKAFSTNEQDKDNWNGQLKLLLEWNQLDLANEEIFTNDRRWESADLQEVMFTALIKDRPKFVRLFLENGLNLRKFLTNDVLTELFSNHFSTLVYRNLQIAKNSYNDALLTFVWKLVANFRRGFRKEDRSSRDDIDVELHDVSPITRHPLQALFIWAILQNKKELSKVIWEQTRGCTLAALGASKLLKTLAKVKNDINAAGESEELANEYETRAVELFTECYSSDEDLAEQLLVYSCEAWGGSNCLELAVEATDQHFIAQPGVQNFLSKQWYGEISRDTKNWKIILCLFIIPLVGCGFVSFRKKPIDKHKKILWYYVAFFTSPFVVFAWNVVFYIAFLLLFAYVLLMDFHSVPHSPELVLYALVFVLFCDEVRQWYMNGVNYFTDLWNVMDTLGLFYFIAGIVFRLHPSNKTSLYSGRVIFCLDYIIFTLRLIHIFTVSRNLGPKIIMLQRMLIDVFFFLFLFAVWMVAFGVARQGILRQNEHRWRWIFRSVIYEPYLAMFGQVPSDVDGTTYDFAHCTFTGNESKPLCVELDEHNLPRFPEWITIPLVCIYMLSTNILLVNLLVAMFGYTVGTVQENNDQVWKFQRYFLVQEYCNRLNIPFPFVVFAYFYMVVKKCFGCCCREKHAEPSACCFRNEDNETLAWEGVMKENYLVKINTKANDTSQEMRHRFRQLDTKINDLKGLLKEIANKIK

For `Cc1c(N(Cc2ccc(F)c(C(F)(F)F)c2)S(C)(=O)=O)sc2ccccc12` [Compound 368, N-(4-Fluoro-3-trifluoromethyl-benzyl)-N-(3-methyl-benzo[b]thiophen-2-yl)-methanesulfonamide], the IC50 under setting [1] turned out to be 18 nM. Besides, the inhibition at 0.2 µM under setting [2] came to 96%. On the same counts, the results for `CC#CCCN(c1sc2ccccc2c1Br)S(=O)(=O)c1ccccc1` [Compound 251, N-(3-Bromo-benzo[b]thiophen-2-yl)-N-(pent-3-ynyl)-benzenesulfonamide] are 38.7 nM and 95%. In the case of `O=S(=O)(c1cccnc1)N(Cc1ccc(F)c(F)c1)c1cc2ccccc2s1` [Compound 33, N-(Benzo[b]thiophen-2-yl)-N-(3,4-difluoro-benzyl)-pyridine-3-sulfonamide], the IC50 under setting [1] was determined as 57.4 nM. Also, the inhibition at 0.5 µM under setting [3] turned out to be 100%.

With `CC(C)(O)c1c(N(Cc2ccccc2)S(=O)(=O)c2ccc(Br)cc2)sc2ccccc12` [Compound 736, N-(Benzyl)-N-(3-(1-hydroxy-1-methyl-ethyl)-benzo[b]thiophen-2-yl)-4-bromo-benzenesulfonamide], the IC50 under setting [1] was found to be 17.2 nM. Moreover, the inhibition at 0.2 µM under setting [2] is 101%. As for `CC(C)(O)c1c(N(Cc2ccc(OC(F)(F)F)cc2)S(=O)(=O)c2ccc(Br)cc2)sc2ccccc12` [Compound 735, N-(3-(1-Hydroxy-1-methyl-ethyl)-benzo[b]thiophen-2-yl)-N-(4-trifluoromethoxybenzyl)-4-bromo-benzenesulfonamide], the IC50 under setting [1] amounted to 26.8 nM. The inhibition at 0.2 µM under setting [2] came out at 101%. On the same counts, the results for `Cc1c(N(Cc2ccc(OC(F)(F)F)cc2)S(=O)(=O)c2ccc(N3CCOCC3)nc2)sc2ccccc12` [Compound 790] are 22 nM and 101%. In the case of `O=S(=O)(c1ccc(Cl)nc1)N(Cc1ccc(F)c(C(F)(F)F)c1)c1sc2ccccc2c1Br` [Compound 320, N-(3-Bromo-benzo[b]thiophen-2-yl)-N-(4-fluoro-3-trifluoromethyl-benzyl)-2-chloro-pyridin-5-ylsulfonamide], the IC50 under setting [1] was determined as 10 nM. In addition, the inhibition at 0.2 µM under setting [2] amounted to 100%. `CCN(c1sc2ccccc2c1Br)S(=O)(=O)c1ccc(C(=O)O)cc1` [Compound 390, N-(3-Bromo-benzo[b]thiophen-2-yl)-N-(ethyl)-4-carboxy-benzenesulfonamide]: under setting [2], the inhibition at 0.2 µM worked out at 69%. Turning to `CN1CCC[C@H]1CN(c1sc2ccccc2c1Br)S(=O)(=O)c1ccccc1` [Compound 241, (S)—N-(3-Bromo-benzo[b]thiophen-2-yl)-N-(1-methyl-pyrrolidin-2-ylmethyl)-benzenesulfonamide], under setting [1], the IC50 worked out at 106 nM. For the same molecule, the inhibition at 0.5 µM under setting [3] worked out at 97%. In the same order, the values of `Cn1cnc(S(=O)(=O)N(Cc2ccc(F)c(F)c2)c2sc3ccccc3c2Br)c1` [Compound 150, N-(3-Bromo-benzo[b]thiophen-2-yl)-N-(3,4-difluoro-benzyl)-1-methyl-1H-imidazole-4-sulfonamide] are 15.4 nM and 100%. On to `COC(=O)c1ccccc1S(=O)(=O)N(Cc1ccc(F)c(C(F)(F)F)c1)c1sc2ccccc2c1Cl` [Compound 196, N-(3-Chloro-benzo[b]thiophen-2-yl)-N-(4-fluoro-3-trifluoromethyl-benzyl)-2-carbomethoxy-benzenesulfonamide], for which the IC50 under setting [1] was found to be 8 nM. Moreover, under setting [2], the inhibition at 0.2 µM came out at 99%. For the molecule `CS(=O)(=O)Nc1cccc(S(=O)(=O)N(CCC(F)(F)F)c2cc3ccccc3s2)c1` [Compound 713, N-(Benzo[b]thiophen-2-yl)-3-methanesulfonylamino-N-(3,3,3-trifluoro-propyl)-benzenesulfonamide], the inhibition at 0.2 µM under setting [2] came out at 47%.

For `Cc1c(N(CCC2CC2)S(=O)(=O)c2ccc(C(=O)O)cc2F)sc2ccccc12` [Compound 589, N-(3-Methyl-benzo[b]thiophen-2-yl)-N-(2-cyclopropyl-ethyl)-2-fluoro-4-carboxy-benzenesulfonamide], the IC50 under setting [1] turned out to be 4.2 nM. Also, the inhibition at 0.2 µM under setting [2] came to 100%. In the case of `CCS(=O)(=O)N(Cc1ccc(F)c(OC)c1)c1sc2ccccc2c1C(C)=O` [Compound 837, N-(3-Acetyl-benzo[b]thiophen-2-yl)-N-(4-fluoro-3-methoxy-benzyl)-ethanesulfonamide], under setting [4], the inhibition at 0.2 µM was 103%. Also, the IC50 under setting [5] amounted to 15 nM. Take `CC(O)c1c(N(Cc2ccc(F)c(F)c2)S(=O)(=O)c2ccccc2)sc2ccccc12` (stereo not shown) [Compound 222, N-(3,4-Difluoro-benzyl)-N-[3-(1-hydroxy-ethyl)-benzo[b]thiophen-2-yl]-benzenesulfonamide]: the 50% inhibitory concentration (IC50) under setting [1] worked out at 1.7 nM. For the same molecule, the inhibition at 0.2 µM under setting [2] is 95%. Turning to `CC(C)c1c(N(Cc2ccc(F)c(C(F)(F)F)c2)S(=O)(=O)c2ccc(C(=O)O)cc2)sc2ccccc12` [Compound 566, N-(4-Fluoro-3-trifluoromethyl-benzyl)-N-(3-isopropyl-benzo[b]thiophen-2-yl)-4-carboxy-benzenesulfonamide], under setting [1], the IC50 came out at 1.8 nM. For the same molecule, the inhibition at 0.2 µM under setting [2] stood at 104%.

As to `CC(O)c1c(N(Cc2ccc(F)c(C(F)(F)F)c2)S(=O)(=O)c2ccc(C(=O)O)cc2)sc2ccccc12` (stereo not shown) [Compound 335, N-(4-Fluoro-3-trifluoromethyl-benzyl)-N-[3-(1-hydroxy-ethyl)-benzo[b]thiophen-2-yl]-4-carboxybenzenesulfonamide], the IC50 under setting [1] was determined as 1 nM. The inhibition at 0.2 µM under setting [2] amounted to 101%. Regarding `O=S(=O)(c1ccccc1)N(Cc1ccccn1)c1cc2ccccc2s1` [Compound 52, N-(Benzo[b]thiophen-2-yl)-N-(pyridin-2-ylmethyl)-benzenesulfonamide], under setting [1], the IC50 was 116 nM. Also, the inhibition at 0.5 µM under setting [3] worked out at 99%.

Take `COC(=O)[C@@H](C)CN(c1sc2ccccc2c1Br)S(=O)(=O)c1ccccc1` [Compound 244, N-(3-Bromo-benzo[b]thiophen-2-yl)-N-[2(S)-methyl-2-carbomethoxy-ethyl]-benzenesulfonamide]: the inhibition at 0.2 µM under setting [2] turned out to be 100%. On to `COc1cccc(S(=O)(=O)N(Cc2ccc(F)c(C(F)(F)F)c2)c2sc3ccccc3c2Br)c1` [Compound 185, N-(3-Bromo-benzo[b]thiophen-2-yl)-N-(4-fluoro-3-trifluoromethyl-benzyl)-3-methoxy-benzenesulfonamide], for which the IC50 under setting [1] was found to be 6.4 nM. Besides, under setting [2], the inhibition at 0.2 µM is 102%.

For the molecule `O=c1[nH]c(-c2ccc(S(=O)(=O)N(CCCC(F)(F)F)c3cc4ccccc4s3)cc2)no1` [Compound 513, N-(Benzo[b]thiophen-2-yl)-N-(4,4,4-trifluoro-butyl)-4-(5-oxo-4,5-dihydro-[1,2,4]oxadiazol-3-yl)-benzenesulfonamide], the IC50 under setting [1] is 21 nM. For the same molecule, the inhibition at 0.2 µM under setting [2] turned out to be 101%. In the case of `NC(=O)c1ccc(S(=O)(=O)N(CCCC(F)(F)F)c2cc3ccccc3s2)cc1` [Compound 414, N-(Benzo[b]thiophen-2-yl)-N-(4,4,4-trifluoro-butyl)-4-carboxamide-benzene-sulfonamide], the “% Inh @ 0.2 (μM)” value under setting [2] was found to be 33%. For the molecule `O=S(=O)(CC(F)(F)F)N(Cc1ccc(F)c(C(F)(F)F)c1)c1sc2ccccc2c1Cl` [Compound 703, N-(3-Chloro-benzo[b]thiophen-2-yl)-N-(4-fluoro-3-trifluoromethyl-benzyl)-2,2,2-trifluoro-ethanesulfonamide], under setting [1], the half-maximal inhibitory concentration (IC50) was 51 nM. Besides, the inhibition at 0.2 µM under setting [2] was 80%.

As for “N-(3,4-Difluoro-benzyl)-N-thieno[3,2-b]pyridin-2-yl-benzenesulfonamide [Compound 146]”, the IC50 under setting [1] came out at 48 nM. The “% Inh @ 0.5 (μM)” value under setting [3] is given as 97%. As for “N-(3-Methyl-benzo[b]thiophen-2-yl)-N-(4-fluoro-3-trifluoromethyl-benzyl)-4-thiomethyl-pyridin-3-yl-sulfonamide [Compound 378]”, under setting [1], the concentration for half-maximal inhibition (IC50) was found to be 97 nM. The “% Inh @ 0.2 (μM)” value under setting [2] is reported as 85%.

With `Cc1c(N(CC2CC2)S(=O)(=O)c2ccc(C(=O)O)cc2)sc2ccccc12` [Compound 399, N-(3-Methyl-benzo[b]thiophen-2-yl)-N-(cyclopropylmethyl)-4-carboxy-benzenesulfonamide], the IC50 under setting [1] came to 36 nM. For the same molecule, the inhibition at 0.2 µM under setting [2] turned out to be 93%. Take `CN(C)c1ccc(S(=O)(=O)N(CCC2CC2)c2cc3ccccc3s2)cc1` [Compound 689, N-(Benzo[b]thiophen-2-yl)-N-(2-cyclopropyl-ethyl)-4-dimethylamino-benzenesulfonamide]: the IC50 under setting [1] amounted to 52.8 nM. For the same molecule, the inhibition at 0.2 µM under setting [2] was determined as 86%.

With `COC(=O)c1ccc(S(=O)(=O)N(CCCF)c2sc3ccccc3c2C)cc1` [Compound 823, N-(3-Fluoro-propyl)-N-(3-methyl-benzo[b]thiophen-2-yl)-4-carbomethoxy-benzenesulfonamide], under setting [4], the inhibition at 0.2 µM was 102%. Further, the IC50 under setting [5] was 22 nM. With `O=S(=O)(c1ccccc1)N(CCC(F)(F)F)c1sc2ccccc2c1Br` [Compound 250, N-(3-Bromo-benzo[b]thiophen-2-yl)-N-(3,3,3-trifluoro-propyl)-benzenesulfonamide], under setting [1], the 50% inhibitory concentration (IC50) is 12.7 nM. The inhibition at 0.2 µM under setting [2] amounted to 102%.

`COC(=O)c1cccc(CN(c2sc3ccccc3c2Br)S(=O)(=O)c2cccnc2)c1` [Compound 405, N-(3-Bromo-benzo[b]thiophen-2-yl)-N-(3-carbomethoxy-benzyl)-pyridin-3-ylsulfonamide]: the IC50 under setting [1] is 36 nM. In addition, the inhibition at 0.2 µM under setting [2] is 95%. With `COc1ncccc1S(=O)(=O)N(Cc1ccc(F)c(C(F)(F)F)c1)c1sc2ccccc2c1C` [Compound 357, N-(3-Methyl-benzo[b]thiophen-2-yl)-N-(4-fluoro-3-trifluoromethyl-benzyl)-2-methoxy-pyridin-3-ylsulfonamide], the IC50 under setting [1] was 19 nM. Further, the inhibition at 0.2 µM under setting [2] came out at 95%.

The values are drawn from patent US9434711B2 (Janssen Pharmaceutica, NV, priority 2007, dated 2016).
